Test results taken from patent publication USRE48097E1, “Cephem compounds, their production and use” (priority 2015, dated 2020).
≈ marks a conversion by molar mass, not a printed value. Where two headings read alike, the source gives them in different places.

What was measured:
Assay type in all cases: cell-based
[1] = tested on: E. cloacae 2705; test: MIC against E. cloacae 2705; settings: Table 3, E. cloacae 2705, VIM-1, KPC-3type
Experimental: (§1) As shown, the foregoing composition was tested for minimum inhibitory concentration (MIC, μg/mL) against bacteria listed in Tables 2-3.

[2] = tested on: K. pneumoniae 2711; test: MIC against K. pneumoniae 2711; settings: Table 3, K. pneumoniae 2711, KPC-3, VIM-1
Experimental: as §1

[3] = tested on: K. pneumoniae 2689; test: MIC against K. pneumoniae 2689; settings: K. pneumoniae 2689, KPC-2
Experimental: as §1

[4] = tested on: K. pneumoniae 4108; test: MIC against K. pneumoniae 4108; settings: K. pneumoniae 4108, KPC-3, TEM-166, SHV-12, SHV-141
Experimental: as §1

[5] = tested on: E. coli 2666; test: MIC against E. coli 2666; settings: Table 3, E. coli 2666, KPC-2
Experimental: as §1

[6] = tested on: E. cloacae 2689; test: MIC against E. cloacae 2689; settings: Table 3, E. cloacae 2689, KPC-2
Experimental: as §1

[7] = tested on: E. coli 4103; test: MIC against E. coli 4103; settings: Table 3, E. coli 4103, KPC-2, TEM-1, CMY-type
Experimental: as §1

[8] = tested on: K. pneumoniae 2713; test: MIC against K. pneumoniae 2713; settings: Table 3, K. pneumoniae 2713, KPC-3, VIM-1
Experimental: as §1

[9] = tested on: K. pneumoniae 4105; test: MIC against K. pneumoniae 4105; settings: K. pneumoniae 4105, KPC-3, TEM-1, SHV-11
Experimental: as §1

[10] = tested on: K. pneumoniae 4106; test: MIC against K. pneumoniae 4106; settings: K. pneumoniae 4106, KPC-3, TEM-1, SHV-12, SHV-141
Experimental: as §1

[11] = tested on: K. pneumoniae 4104; test: MIC against K. pneumoniae 4104; settings: K. pneumoniae 4104, KPC-3, TEM-1
Experimental: as §1

[12] = tested on: E. cloacae 2706; test: MIC against E. cloacae 2706; settings: Table 3, E. cloacae 2706, VIM-1, KPC-3
Experimental: as §1

[13] = tested on: K. pneumoniae 2690; test: MIC against K. pneumoniae 2690; settings: Table 3, K. pneumoniae 2690, KPC-2
Experimental: as §1

[14] = tested on: P. aeruginosa 2686; test: MIC against P. aeruginosa 2686; settings: Table 3, P. aeruginosa 2686, KPC-2
Experimental: as §1

[15] = tested on: E. cloacae 2710; test: MIC against E. cloacae 2710; settings: Table 3, E. cloacae 2710, KPC-3, VIM-1
Experimental: as §1

[16] = tested on: E. cloacae 2709; test: MIC against E. cloacae 2709; settings: Table 3, E. cloacae 2709, KPC-3, VIM-1
Experimental: as §1

[17] = tested on: K. pneumoniae 4107; test: MIC against K. pneumoniae 4107; settings: K. pneumoniae 4107, KPC-2, TEM-1, SHV-11
Experimental: as §1

[18] = tested on: K. pneumoniae 4088; test: MIC against K. pneumoniae 4088; settings: Table 3, K. pneumoniae 4088, KPC-3
Experimental: as §1

[19] = tested on: K. pneumoniae 2712; test: MIC against K. pneumoniae 2712; settings: Table 3, K. pneumoniae 2712, KPC-3, VIM-1
Experimental: as §1

[20] = Enterobacter cloacae, alone, read-out: MIC
[21] = Klebsiella pneumoniae, alone, read-out: MIC
[22] = Klebsiella pneumoniae, 2689, Table 3, alone, read-out: MIC
[23] = Table 3, in combination with NXL-104
[24] = Klebsiella pneumoniae, 4108, Table 3, alone, read-out: MIC
[25] = Escherichia coli, alone, read-out: MIC
[26] = Klebsiella pneumoniae, 4105, Table 3, alone, read-out: MIC
[27] = Klebsiella pneumoniae, 4106, Table 3, alone, read-out: MIC
[28] = Klebsiella pneumoniae, 4104, Table 3, alone, read-out: MIC
[29] = Pseudomonas aeruginosa, alone, read-out: MIC
[30] = Klebsiella pneumoniae, 4107, Table 3, alone, read-out: MIC

SMILES	MIC [1, 20] [µg/mL]	MIC ([1]; in combination with NXL-104) [µg/mL]	MIC [2, 21] [µg/mL]	MIC ([2]; in combination with NXL-104) [µg/mL]	MIC [3, 22] [µg/mL]	MIC [3, 23] [µg/mL]	MIC [4, 24] [µg/mL]	MIC [4, 23] [µg/mL]	MIC [5, 25] [µg/mL]	MIC ([5]; in combination with NXL-104) [µg/mL]	MIC [6, 20] [µg/mL]	MIC ([6]; in combination with NXL-104) [µg/mL]	MIC [7, 25] [µg/mL]	MIC ([7]; in combination with NXL-104) [µg/mL]	MIC [8, 21] [µg/mL]	MIC ([8]; in combination with NXL-104) [µg/mL]	MIC [9, 26] [µg/mL]	MIC [9, 23] [µg/mL]	MIC [10, 27] [µg/mL]	MIC [10, 23] [µg/mL]	further results
CC(C)(O/N=C(\C(=O)N[C@@H]1C(=O)N2C(C(=O)[O-])=C(C[n+]3ccc4n(Cc5ccc(C(=N)N)cc5)ccn43)CS[C@H]12)c1csc(N)n1)C(=O)O [Example 4, (6R,7R)-7-{[(2Z)-2-(2-Amino-1,3-thiazol-4-yl)-2-{[(2-carboxypropan-2-yl)oxy]imino}acetyl]amino}-3-{[1-(4-carbamimidoylbenzyl)-1H-imidazo[1,2-b]pyrazol-5-ium-5-yl]methyl}-8-oxo-5-thia-1-azabicyclo[4.2.0]oct-2-ene-2-carboxylate]	> 32	>32	8 (≈ 11.3 µM)	1	16 (≈ 22.6 µM)	1	> 32	2	32 (≈ 45.3 µM)	2	4 (≈ 5.66 µM)	0.5	> 32	8	> 32	2	> 32	2	32 (≈ 45.3 µM)	4	MIC [11, 28]: 16 µg/mL (≈ 22.6 µM); MIC [11, 23]: 1 µg/mL; MIC [12, 20]: > 32 µg/mL; MIC ([12]; in combination with NXL-104): 32 µg/mL; MIC [13, 21]: 16 µg/mL (≈ 22.6 µM); MIC ([13]; in combination with NXL-104): 2 µg/mL; MIC [14, 29]: 32 µg/mL (≈ 45.3 µM); MIC ([14]; in combination with NXL-104): 8 µg/mL; MIC [15, 20]: > 32 µg/mL; MIC ([15]; in combination with NXL-104): >32 µg/mL; MIC [16, 20]: 8 µg/mL (≈ 11.3 µM); MIC ([16]; in combination with NXL-104): 4 µg/mL; MIC [17, 30]: 32 µg/mL (≈ 45.3 µM); MIC [17, 23]: 2 µg/mL; MIC [18, 21]: > 32 µg/mL; MIC ([18]; in combination with NXL-104): 4 µg/mL; MIC [19, 21]: > 32 µg/mL; MIC ([19]; in combination with NXL-104): 4 µg/mL
CO/N=C(\C(=O)N[C@@H]1C(=O)N2C(C(=O)[O-])=C(C[n+]3ccc4c(ccn4Cc4cc(C(=N)Nc5ccccc5)cs4)c3)CS[C@H]12)c1nc(N)sc1Cl [Example 12, (6R,7R)-7-{[(2Z)-2-(2-Amino-5-chloro-1,3-thiazol-4-yl)-2-(methoxyimino)acetyl]amino}-8-oxo-3-[(1-{[4-(N-phenylcarbamimidoyl)thiophen-2-yl]methyl}-1H-pyrrolo[3,2-c]pyridin-5-ium-5-yl)methyl]-5-thia-1-azabicyclo[4.2.0]oct-2-ene-2-carboxylate]	> 32	>32	4 (≈ 5.25 µM)	0.5	16 (≈ 21 µM)	1	32 (≈ 42 µM)	1	16 (≈ 21 µM)	1	32 (≈ 42 µM)	1	> 32	4	> 32	2	32 (≈ 42 µM)	2	32 (≈ 42 µM)	2	MIC [11, 28]: 16 µg/mL (≈ 21 µM); MIC [11, 23]: 1 µg/mL; MIC [12, 20]: > 32 µg/mL; MIC ([12]; in combination with NXL-104): >32 µg/mL; MIC [13, 21]: 8 µg/mL (≈ 10.5 µM); MIC ([13]; in combination with NXL-104): 1 µg/mL; MIC [14, 29]: 32 µg/mL (≈ 42 µM); MIC ([14]; in combination with NXL-104): 32 µg/mL; MIC [15, 20]: > 32 µg/mL; MIC ([15]; in combination with NXL-104): >32 µg/mL; MIC [16, 20]: 32 µg/mL (≈ 42 µM); MIC ([16]; in combination with NXL-104): 4 µg/mL; MIC [17, 30]: 16 µg/mL (≈ 21 µM); MIC [17, 23]: 1 µg/mL; MIC [18, 21]: > 32 µg/mL; MIC ([18]; in combination with NXL-104): 2 µg/mL; MIC [19, 21]: > 32 µg/mL; MIC ([19]; in combination with NXL-104): 4 µg/mL
CO/N=C(\C(=O)N[C@@H]1C(=O)N2C(C(=O)[O-])=C(C[n+]3ccc4c(ccn4Cc4cc(C(=N)Nc5nccs5)cs4)c3)CS[C@H]12)c1nc(N)sc1Cl [Example 14, (6R,7R)-7-{[(2Z)-2-(2-Amino-5-chloro-1,3-thiazol-4-yl)-2-(methoxyimino)acetyl]amino}-8-oxo-3-{[1-({4-[N-(1,3-thiazol-2-yl)carbamimidoyl]thiophen-2-yl}methyl)-1H-pyrrolo[3,2-c]pyridin-5-ium-5-yl]methyl}-5-thia-1-azabicyclo[4.2.0]oct-2-ene-2-carboxylate]	> 32	>32	4 (≈ 5.2 µM)	0.5	32 (≈ 41.6 µM)	1	> 32	2	32 (≈ 41.6 µM)	1	16 (≈ 20.8 µM)	0.5	> 32	8	> 32	2	> 32	2	> 32	4	MIC [11, 28]: 32 µg/mL (≈ 41.6 µM); MIC [11, 23]: 1 µg/mL; MIC [12, 20]: > 32 µg/mL; MIC ([12]; in combination with NXL-104): 32 µg/mL; MIC [13, 21]: 32 µg/mL (≈ 41.6 µM); MIC ([13]; in combination with NXL-104): 1 µg/mL; MIC [14, 29]: > 32 µg/mL; MIC ([14]; in combination with NXL-104): 16 µg/mL; MIC [15, 20]: > 32 µg/mL; MIC ([15]; in combination with NXL-104): >32 µg/mL; MIC [16, 20]: 32 µg/mL (≈ 41.6 µM); MIC ([16]; in combination with NXL-104): 4 µg/mL; MIC [17, 30]: 16 µg/mL (≈ 20.8 µM); MIC [17, 23]: 2 µg/mL; MIC [18, 21]: > 32 µg/mL; MIC ([18]; in combination with NXL-104): 4 µg/mL; MIC [19, 21]: > 32 µg/mL; MIC ([19]; in combination with NXL-104): 4 µg/mL
